Experimental data: patent publication US20120064056A1, “DICHLORACETATE IN COMBINATION WITH CLINICALLY HIGH LEVELS OF CARDIOPROTECTIVE OR HEMODYNAMIC DRUGS” (THE GOVERNORS OF THE UNIVERSITY OF ALBERTA TEC Edmonton, priority 2002, published 2012)

Assays:
[1] = system: isolated rat hearts subjected to global ischemia; assay: Isolated working rat heart, global no flow ischemia and reperfusion: cardiac function and efficiency
Experimental: (§1) Hearts were trimmed of excess tissue, and the pulmonary artery and the opening to the left atrium were then cannulated. After 15 min of Langendorff perfusion, hearts were switched to the working mode by clamping the aortic inflow line from the Langendorff reservoir and opening the left atrial inflow line. The perfusate was delivered from an oxygenator into the left atrium at a constant preload pressure of 11 mm Hg. […] The afterload was set at a hydrostatic pressure of 80 mm Hg. […] Palmitate was bound to the albumin as described previously ([…]., et al. J Biol. Chem. 267:3825-3831 (1992)). […] For the aerobic model hearts, all tested compounds were introduced into the heart 5 minutes into the working mode following Langendorff Perfusion. Spontaneously beating hearts were used in all perfusions. Heart rate and aortic pressure were measured with a Biopac Systems Inc. blood pressure transducer connected to the aortic outflow line. Cardiac output and aortic flow were measured with Transonic […] ultrasonic flow probes in the preload and afterload lines, respectively. Coronary flow was calculated as the difference between cardiac output and aortic flow. […] Cardiac work was calculated as the product of systolic pressure and cardiac output. Cardiac efficiency was defined as a ratio of cardiac work to MVO2. […] All tested compounds were introduced into the perfusate five minutes prior to reperfusion.

[2] = system: isolated rat hearts subjected to global ischemia; assay: Isolated working rat heart, global ischemia and reperfusion: glycolysis and glucose oxidation; conditions: digoxin 3 nM, metoprolol 1 μM
Experimental: Hearts were trimmed of excess tissue, and the pulmonary artery and the opening to the left atrium were then cannulated. After 15 min of Langendorff perfusion, hearts were switched to the working mode by clamping the aortic inflow line from the Langendorff reservoir and opening the left atrial inflow line. The perfusate was delivered from an oxygenator into the left atrium at a constant preload pressure of 11 mm Hg. […] The afterload was set at a hydrostatic pressure of 80 mm Hg. […] Palmitate was bound to the albumin as described previously ([…]., et al. J Biol. Chem. 267:3825-3831 (1992)). […] For the aerobic model hearts, all tested compounds were introduced into the heart 5 minutes into the working mode following Langendorff Perfusion. […] All tested compounds were introduced into the perfusate five minutes prior to reperfusion. […] Am J Physiol. 270:[…]. Am J Cardiol. 80:3A-10A (1997)). […] In the global ischemia model, the total myocardial ^3H2O and ^14CO2 production were determined at 20 minute intervals for the 60 minute reperfusion period. […] L., et al. Biochemistr. 1923:6503-6062 (1984)).

[3] = system: isolated rat hearts subjected to low flow demand ischemia; assay: Isolated working rat heart, low flow demand ischemia: cardiac function and efficiency; conditions: for Aortic Outflow / Cardiac Output / Coronary Flow / HR × PSP / Heart Rate / Peak Systolic Pressure: DCA 2 mM, diltiazem 0.8 μM, metoprolol 1 μM
Experimental: as §1, with “into initiation of aerobic perfusion.” for “prior to reperfusion.”

[4] = post-ischemic reperfusion, DCA 2 mM, digoxin 3 nM, metoprolol 1 μM
[5] = low flow ischemia: aerobic period
[6] = low flow ischemia: ischemic period

**Q.** What does the source list for COCCc1ccc(OCC(O)CNC(C)C)cc1 (stereo not shown) [Metoprolol, metoprolol]?
**A.** Aortic Outflow [1, 4]: 11 ± 5 mL/min; Cardiac Output [1, 4]: 24 ± 9 mL/min; Coronary Flow [1, 4]: 13 ± 4 mL/min; HR × PSP [1, 4]: 13 ± 6 beats · min^−1 · mmHg · 10^−2; Heart Rate [1, 4]: 185 ± 40 beats · min^−1; Peak Systolic Pressure [1, 4]: 73 ± 17 mmHg; functional parameters (cardiac function, cardiac efficiency) during the reperfusion period compared to control (Table 1, Table 2), in words ([1]; reperfusion period): significantly improved; recovery of cardiac function of previously ischemic hearts compared to control, in words ([1]; reperfusion period, FIG. 11, FIG. 17): does not change cardiac function; recovery of cardiac work of previously ischemic hearts compared to control, in words ([1]; reperfusion period, FIG. 12, FIG. 18): significantly improve the recovery; recovery of oxygen consumption of previously ischemic hearts, in words ([1]; reperfusion period, FIG. 13, FIG. 19): There does not appear to be significant differences; recovery of cardiac efficiency of previously ischemic hearts compared to control, in words ([1]; reperfusion period, FIG. 14, FIG. 20): does not; glycolytic rates as compared to control, in words ([2]; FIG. 10, FIG. 16, DCA 2 mM): neither DCA, metoprolol or metoprolol with DCA altered glycolytic rates; glucose oxidation rates, in words ([2]; reperfusion period, FIG. 9, FIG. 15, DCA 2 mM): no effect; cardiac work, in words ([3]; low flow demand ischemia, FIG. 24, FIG. 30): no significant changes; oxygen consumption, in words ([3]; low flow demand ischemia, FIG. 25, FIG. 31): no significant changes; peak systolic pressure, effect in words ([3]; low flow demand ischemia, Table 1): no significant increase; heart rate, effect in words ([3]; low flow demand ischemia, Table 1, compared to control): no significant increase; coronary flow (coronary outflow), effect in words ([3]; low flow demand ischemia, Table 2): no significant increase; Aortic Outflow [3, 5]: 25 ± 2 mL/min; Cardiac Output [3, 5]: 47 ± 2 mL/min; Coronary Flow [3, 5]: 22 ± 1 mL/min; HR × PSP [3, 5]: 30 ± 2 beats · min^−1 · mmHg · 10^−2; Heart Rate [3, 5]: 216 ± 10 beats · min^−1; Peak Systolic Pressure [3, 5]: 141 ± 7 mmHg; Aortic Outflow [3, 6]: 17 ± 3 mL/min; Cardiac Output [3, 6]: 31 ± 4 mL/min; Coronary Flow [3, 6]: 14 ± 1 mL/min; HR × PSP [3, 6]: 30 ± 2 beats · min^−1 · mmHg · 10^−2; Heart Rate [3, 6]: 216 ± 10 beats · min^−1; Peak Systolic Pressure [3, 6]: 141 ± 7 mmHg; cardiac function, in words ([3]; low-flow ischemic period, FIG. 23, FIG. 29): no significant changes
